Experiment [1] concerns HCV replicon in 5-2 Luc replicon-comprising cells. Kind of experiment: HCV replicon assay (luciferase; HEPC_REPLICON-LUC). In kind it is cell-based, Hepatitis C virus. Particulars: read-out: Replicon (IC50). From the text: In one embodiment, the inhibitory activity of the metabolically active agent of the prodrug can be confirmed in a replicon assay that assesses the ability of a test compound to block or inhibit HCV replication in replicon cells. One example of a suitable replicon assay is the liver cell-line Huh 7-based replicon assay described in Lohmann et al., 1999, Science 285:110-113. A specific example of this replicon assay which utilizes luciferase translation is provided in the Examples Section. In one embodiment of this assay, the amount of test prodrug that yields a 50% reduction in translation as compared to a control cell (IC50) may be determined.
The inhibitory activity of certain prodrugs of the invention, which may inhibit HCV translation or replication prior to metablism and/or are metabolized into active agents, was confirmed using an HCV replicon assay. The HCV replicon can include such features as the HCV 5′ untranslated region including the HCV IRES, the HCV 3′ untranslated region, selected HCV genes encoding HCV polypeptides, selectable markers, and a reporter gene such as luciferase, GFP, etc. In the assay, actively dividing 5-2 Luc replicon-comprising cells (obtained from Ralf Bartenschlager; see Lohmann et al., 1999, Science 285:110-113) were seeded at a density of between about 5,000 and 7,500 cells/well onto 96 well plates (about 90 µl of cells per well) and incubated at 37° C. and 5% CO2 for 24 hours. Then, the test prodrug (in a volume of about 10 PI) was added to the wells at various concentrations and the cells were incubated for an additional 24-48 hours before luciferase assay. The media was aspirated from each well and Bright-Glo (Promega, Madison, WI) luciferase assay reagents were added to each well according to the manufacturer's instructions. Briefly, the BrightGlo reagent was diluted 1:1 with PBS and 100 µl of diluted reagent was added to each well. After 5 min of incubation at room temperature, luciferin emission was quantified with a luminometer. In this assay, the amount of test prodrug that yielded a 50% reduction in luciferase emission (IC50) was determined. This IC50 value may represent the antiviral activity of the prodrug itself, the activity of prodrug transformed into its active metabolized form, or a combination of the two.
In TABLES 3 through 12, a value of “+” indicates an IC50 of 10 μM or less in the specified assay; a value of “−” indicates an IC50 of greater than 10 μM in the specified assay.
(In general: In antiviral work, replicon cells carry a viral genome segment that copies itself.)

The test system of experiment [2] is HCV NS5A protein in 9-13 replicon cells. Kind of experiment: Replicon quantitative Western blot assay (HEPC_REPLICON-ICWESTERN). In kind it is cell-based. As to conditions: Hepatitis C virus; Table 14; read-out: HEPC_REPLICON-ICWESTERN Result Value. As for the experimental part: Alternatively, the inhibitory activity of the metabolically active agents of the prodrugs can be confirmed using a quantitative Western immunoblot assay utilizing antibodies specific for HCV non-structural proteins, such as NS3, NS4A NS5A and NS5B. In one embodiment of this assay, replicon cells are treated with varying concentrations of test prodrug to determine the concentration of the metabolically active agent of the test prodrug that yields a 50% reduction in the amount of a non-structural protein produced as compared to a control sample (IC50). A single non-structural protein may be quantified or multiple non-structural proteins may be quantified. Antibodies suitable for carrying out such immunoblot assays are available commercially (e.g., from BIODESIGN International, Saco, Me.).
Certain prodrugs of the invention, which may inhibit HCV translation or replication prior to metablism and/or are metabolized into active agents, were also tested for their ability to inhibit HCV replication using a quantitative Western blot analysis with antibodies specific for the HCV NS5A or other non-structural proteins. Actively dividing 9-13 replicon cells were seeded into 6-well plates at a density of 1×10^5 cells/well in a volume of 2 ml/well and incubated at 37° C. and 5% CO2 for 24 hours. Various concentrations of test prodrugs (in a volume of 10 ul) were added to the wells and the cells incubated for another 48 hours. Protein samples were prepared from the cultured cells, resolved on a SDS-PAGE gel and transferred to a nitrocellulose membrane. The membrane was blocked with 5% non-fat milk in PBS for 1 hour at room temperature. Primary antibody (anti NS5A antibody; BIODESIGN International, Saco, Me.) incubation was performed for 1 hour at room temperature, after which the membrane was washed 3 times (for 15 min per time) with PBST (PBS plus 0.1% Tween 20). Horseradish peroxidase conjugated secondary antibody incubation was performed for 1 hour at room temperature and the membrane was washed 3 times (for 15 min per time) with PBST. The membrane was then soaked in substrate solution (Pierce) and exposed to a film or quantified using an imager. In this assay, the amount of test prodrug that is believed to be transformed into an active agent under the given conditions that yielded a 50% reduction in the amount of NS5A protein translated as compared to a control sample (IC50) was determined.

[3] abbreviates: Hepatitis C virus, Tables 3-12, 50% reduction in luciferase emission, 5-2 Luc replicon cells.

SMILES strings stand for the structures. Like-named read-outs stand apart in the source and are kept apart here. Where only a bound is given, the exact number is not on record here.

On to `COC(=O)C(Cl)(Cl)C(=O)Nc1cccc(-c2cc(-c3c(Cl)ccnc3N(C)C)no2)c1` [Cpd. 28], for which the IC50 in experiment [1] (setting [3]) was at most 10 µM.

As for `COC(=O)C(Cl)(Cl)C(=O)Nc1cccc(-c2cc(-c3ccccc3C(F)(F)F)no2)c1` [Cpd. 29, 2′,2′-dichloro-2′-(methoxycarbonyl)-N-[3-[3-(2-trifluoromethylphenyl)-5-isoxazoyl]phenyl] acetamide], the IC50 in experiment [1] (setting [3]) was at most 10 µM.

As to `COC(=O)C(Cl)(Cl)C(=O)Nc1cccc(-c2cc(-c3c(F)cccc3C(F)(F)F)no2)c1` [Cpd. 30, 2′,2′-dichloro-2′-(methoxycarbonyl)-N-[3-[3-(2-fluoro-6-trifluoromethylphenyl)-5-isoxazoyl]phenyl] acetamide], in experiment [1] (setting [3]), the IC50 was at most 10 µM.

`COc1cccc(Cl)c1-c1cc(-c2cccc(N(Cc3oc(=O)oc3C)C(=O)C(Cl)Cl)c2)on1` [Cpd. 31, 2,2-dichloro-N-[3′-[3′-(2′-chloro-6′-methoxyphenyl)-5′-isoxazoyl]phenyl]-N-[(5-methyl-1,3-dioxolene-2-one-4-yl)methylene] acetamide]: the IC50 in experiment [1] (setting [3]) was at most 10 µM.

With `CC(C)c1oc(=O)oc1CN(C(=O)C(Cl)Cl)c1cccc(-c2cc(-c3c(Cl)cccc3Cl)no2)c1` [Cpd. 34, 2,2-dichloro-N-[3′-[3′-(2′,6′-dichlorophenyl)-5′-isoxazoyl]phenyl]-N-[(5-isopropyl-1,3-dioxolene-2-one4-yl)methylene] acetamide], the IC50 in experiment [1] (setting [3]) is at most 10 µM.

Consider `CC(C)c1oc(=O)oc1CN(C(=O)C(Cl)Cl)c1cccc(-c2cc(-c3c(Cl)ccnc3N(C)C)no2)c1` [Cpd. 35], for which the IC50 in experiment [1] (setting [3]) is at most 10 µM.

Consider `COc1cccc(Cl)c1-c1cc(-c2cccc(N(Cc3oc(=O)oc3C(C)C)C(=O)C(Cl)Cl)c2)on1` [Cpd. 37, 2,2-dichloro-N-[3′-[3′-(2′-chloro-6′-methoxyphenyl)-5′-isoxazoyl]phenyl]-N-[(5-isopropyl-1,3-dioxolene-2-one-4-yl)methylene] acetamide], for which, in experiment [1] (setting [3]), the IC50 was at most 10 µM.

For the molecule `CCCc1oc(=O)oc1CN(C(=O)C(Cl)Cl)c1cccc(-c2cc(-c3c(Cl)cccc3Cl)no2)c1` [Cpd. 38, 2,2-dichloro-N-[3′-[3′-(2′,6′-dichlorophenyl)-5′-isoxazoyl]phenyl]-N-[(5-n-propyl-1,3-dioxolene-2-one-4-yl)methylene] acetamide], the IC50 in experiment [1] (setting [3]) is at most 10 µM.

With `O=C(C(Cl)Cl)N(Cc1oc(=O)oc1C1CCCCC1)c1cccc(-c2cc(-c3c(Cl)cccc3Cl)no2)c1` [Cpd. 39, 2,2-dichloro-N-[3′-[3′-(2′,6′-dichlorophenyl)-5′-isoxazoyl]phenyl]-N-[(5-cyclohexyl-1,3-dioxolene-2-one4-yl)methylene] acetamide], the IC50 in experiment [1] (setting [3]) was at most 10 µM.

Consider `CCc1oc(=O)oc1CN(C(=O)C(Cl)Cl)c1cccc(-c2cc(-c3c(Cl)cccc3Cl)no2)c1` [Cpd. 40], for which the IC50 in experiment [1] (setting [3]) is at most 10 µM.

Consider `Cc1oc(=O)oc1CN(C(=O)C(Cl)Cl)c1ccnc(-c2cc(-c3c(Cl)cccc3Cl)no2)c1` [Cpd. 41, 2,2-dichloro-N-[2′-[3′-(2′,6′-dichlorophenyl)-5′-isoxazoyl](4-pyridyl)]-N-[(5-methyl-1,3-dioxolene-2-one4-yl)methylene] acetamide], for which, in experiment [1] (setting [3]), the IC50 is at most 10 µM.

Consider `CC(C)c1oc(=O)oc1CN(C(=O)C(Cl)Cl)c1ccnc(-c2cc(-c3c(Cl)cccc3Cl)no2)c1` [Cpd. 42, 2,2-dichloro-N-[2′-[3′-(2′,6′-dichlorophenyl)-5′-isoxazoyl](4-pyridyl)]N-[(5-i-propyl-1,3-dioxolene-2-one4-yl)methylene] acetamide], for which the IC50 in experiment [1] (setting [3]) was at most 10 µM.

As for `CCCCCc1oc(=O)oc1CN(C(=O)C(Cl)Cl)c1ccnc(-c2cc(-c3c(Cl)cccc3Cl)no2)c1` [Cpd. 43, 2,2-dichloro-N-[2′-[3′-(2′,6′-dichlorophenyl)-5′-isoxazoyl](4pyridyl)]N-[(5-n-pentyl-1,3-dioxolene-2-one4yl)methylene] acetamide], in experiment [1] (setting [3]), the IC50 is at most 10 µM.

Regarding `CCOC(=O)c1oc(=O)oc1CN(C(=O)C(Cl)Cl)c1cccc(-c2cc(-c3c(Cl)cccc3Cl)no2)c1` [Cpd. 44], in experiment [1] (setting [3]), the IC50 was over 10 µM.

Take `O=C(Nc1cccc(-c2cc(-c3c(Cl)cccc3Cl)no2)c1)C(Cl)(Cl)C(=O)N1CCOCC1` [Cpd. 50]: the IC50 in experiment [1] (setting [3]) is at most 10 µM.

As for `O=C(CCN(C(=O)C(Cl)Cl)c1cccc(-c2cc(-c3c(Cl)cccc3Cl)no2)c1)c1ccc(Cl)cc1` [Cpd. 104a, 2′,2′-Dichloro-N-[3-[3-(2,6-dichlorophenyl)-5-isoxazolyl]phenyl]-N-[2-(4-chlorobenzoyl)ethyl] Acetamide], in experiment [1] (Table 15), the IC50 is at most 10 µM.

On to `CC(C)(C)OC(=O)C(Cl)(Cl)C(=O)Nc1ccnc(-c2cc(-c3c(Cl)cccc3Cl)no2)c1` [Cpd. 505], for which the IC50 in experiment [1] (setting [3]) is at most 10 µM.

As for `CC(C)(C)OC(=O)c1ccc(CN(C(=O)C(Cl)Cl)c2ccnc(-c3cc(-c4c(Cl)cccc4Cl)no3)c2)cc1` [Cpd. 1021, tert-Butyl 4-((2,2-Dichloro-N-(2-(3-(2,6-dichlorophenyl)isoxazol-5-yl)pyridin-4-yl)acetamido)methyl)benzoate], the IC50 in experiment [2] is 1 to 20 µM.

Take `O=C(C(Cl)Cl)N(Cc1ccc(OCCN2CCOCC2)cc1)c1ccnc(-c2cc(-c3c(Cl)cccc3Cl)no2)c1` [Cpd. 1022, 2,2-Dichloro-N-(2-(3-(2,6-dichlorophenyl)isoxazol-5-yl)pyridin-4-yl)-N-(4-(2-morpholinoethoxy)benzyl)acetamide]: the IC50 in experiment [2] was under 1 µM.

As for `CCN1CCN(c2ccc(CN(C(=O)C(Cl)Cl)c3ccnc(-c4cc(-c5c(Cl)cccc5Cl)no4)c3)cc2)CC1` [Cpd. 1023, 2,2-Dichloro-N-(2-(3-(2,6-dichlorophenyl)isoxazol-5-yl)pyridin-4-yl)-N-(4-(4-ethylpiperazin-1-yl)benzyl)acetamide], in experiment [2], the IC50 was under 1 µM.

For `O=C(Nc1ccnc(-c2cc(-c3c(Cl)cccc3Cl)no2)c1)C(Cl)(Cl)C(=O)OC1CCCCC1` [compound 23], the IC50 in experiment [1] (setting [3]) was at most 10 µM.

Consider `O=C(Nc1cccc(-c2cc(-c3c(N4CCOCC4)ccnc3Cl)no2)c1)C(Cl)(Cl)C(=O)OC1CCCCC1` [compound 52], for which, in experiment [1] (setting [3]), the IC50 was over 10 µM.

In the case of `CCOC(=O)C(Cl)(Cl)C(=O)Nc1cccc(-c2cc(-c3c(N4CCOCC4)ccnc3Cl)no2)c1` [compound 54], the IC50 in experiment [1] (setting [3]) was over 10 µM.

As for `CC(C)(C)OC(=O)C(Cl)(Cl)C(=O)Nc1cccc(-c2cc(-c3c(N4CCOCC4)ccnc3Cl)no2)c1` [compound 56], the IC50 in experiment [1] (setting [3]) is over 10 µM.

With `Cc1oc(=O)oc1CN(C(=O)C(Cl)Cl)c1cccc(-c2cc(-c3c(Cl)cccc3Cl)no2)c1` [compound 901, 2,2-dichloro-N-[3′-[3′-(2′,6′-dichlorophenyl)-5′-isoxazoyl]phenyl]N-[(5-methyl-1,3-dioxolene-2-one4-yl)methylene] acetamide], the IC50 in experiment [1] (setting [3]) is at most 10 µM.

As for `CC(C)(C)c1oc(=O)oc1CN(C(=O)C(Cl)Cl)c1cccc(-c2cc(-c3c(Cl)cccc3Cl)no2)c1` [compound 1007, 2,2-dichloro-N-[3′-[3′-(2′,6′-dichlorophenyl)-5′-isoxazoyl]phenyl]-N-[(5-t-butyl-1,3-dioxolene-2-one4yl)methylene]acetamide], in experiment [1] (setting [3]), the IC50 was at most 10 µM.

The values above are taken from patent publication US20050239751A1, “Heterocyclic anti-viral compounds comprising metabolizable moieties and their uses” (Rigel Pharmaceuticals, Inc., priority 2004, published 2005).
